# Test results from the NIST ThermoML archive (doi:10.1016/j.fluid.2012.09.019).
# Numbers after ± are expanded uncertainties.
# How the values were obtained:
# [1] = refractive index (Na D-line) (dimensionless); conditions: 298.15 K; 101.33 kPa; Liquid; Standard Abbe refractometry
# [2] = 298.15 K; 101.33 kPa; Liquid; Vibrating tube method
SMILES,refractive index [1],mass density [2] [kg/m3]
"Cc1ccccc1C [1,2-dimethylbenzene]",1.4945 ± 0.0008,859.54 ± 0.14
"Cc1cccc(C)c1 [1,3-dimethylbenzene]",1.4946 ± 0.0008,859.95 ± 0.14
"Cc1ccc(C)cc1 [1,4-dimethylbenzene]",1.4957 ± 0.0008,856.71 ± 0.14
CCCCCCCCCC [decane],1.4108 ± 0.0008,726.36 ± 0.17
